# Reference: patent US20220175761A1, “BI-LIGAND DRUG CONJUGATE AND USE THEREOF” (COHERENT BIOPHARMA (SUZHOU), LIMITED, priority 2019, published 2022)
# Numbered stars: 1 amine (or outer) side, 2 acyl side, 3 side chain; on linkers, the order of the positions; unused ones are H or OH. Bridge positions count the residues as written; N and C are the ends. Square brackets hold non-standard residues; d marks the D form. Peptide text beside a SMILES is read from it. I, II: the chains in the order shown. * marks the point of attachment. ξ: configuration not given here. Hexanoyl(6-succinimido-3yl) = O=C1CC([*:1])C(=O)N1CCCCCC(=O)[*:2]; EuK = O=C(O)CC[C@H](NC(=O)N[C@@H](CCCCN*)C(=O)O)C(=O)O; Dolaproine = CO[C@@H]([C@@H]1CCCN1)[C@@H](C)C(=O)O; Dil = CC[C@H](C)[C@H](NC)[C@@H](CC(=O)O)OC; PABC = O=C(OCc1ccc(N[*:1])cc1)[*:2]; X1 = C[C@@H](N*)[C@@H](O)c1ccccc1; X2 = O=C(Cc1ccc(CN[*:1])cc1)[*:2]; PEG4 = NCCOCCOCCOCCOCCC(=O)O; NMeV = CN[C@H](C(=O)O)C(C)C; ξCit = NC(=O)NCCCC(N)C(=O)O; CO = O=C([*:1])[*:2]; ξV = CC(C)C(N)C(=O)O; Ahx = NCCCCCC(=O)O
# How the values were obtained:
# [1] = test system: MDA-MB-468 (human breast cancer cells); experiment: Inhibition of cell line proliferation, CCK8; format: cell-based
# [2] = test system: SK-BR-3 (human breast cancer cells); experiment: Inhibition of cell line proliferation, CCK8; format: cell-based; conditions: for IC50 (MMAE)/IC50 (conjugate): SK-BR-3; for IC50: SK-BR-3, 68-72 hours, CCK8
# Description: (§1) Experimental operations: LNCaP, SK-BR-3, NCI-H226, CFPAC-1 and PANC-1 cells were prepared in advance and counted; with a culture medium (IMDM+10% FBS+1× L-Glutamine+1×P/S), the cells LNCaP, SK-BR-3 and CFPAC-1 were diluted to 4×10^4 cells/ml, NCI-H226 was diluted to 2.0×10^4 cells/ml and PANC-1 was diluted to 3.0×10^4 cells/ml; the diluted cell solution was plated in 96-well plates at 100 μl/well; and negative control and blank control wells were set on each plate. After adherent cell culture overnight, the diluted samples to be tested were added at 50 μl/well. The plates were placed in an incubator at 37° C., 5% CO2 and cultured for 68-72 hours. To each well, 15 μl (10% of the liquid volume in a well) of a color developing solution from CCK8 was added; and the plates were incubated at 37° C. for 45-70 minutes and each plate was read at 450 nm on a microplate reader. The data was edited using SoftMax Pro and a 4-P fitting curve was plotted.
# (§2) Experimental Operations: LNCaP, SK-BR-3, MDA-MB-468 and CFPAC-1 cells were prepared in advance and counted; with a culture medium (IMDM+10% FBS+1× L-Glutamine+1×P/S), the cells LNCaP, SK-BR-3, MDA-MB-468 and CFPAC-1 were diluted to 4×10^4 cells/ml; the diluted cell solution was plated in 96-well plates at 100 µl/well; and negative control and blank control wells were set on each plate. After adherent cell culture overnight, the diluted samples to be tested were added at 50 μl/well. The plates were placed in an incubator at 37° C., 5% CO2 and cultured for 68-72 hours. To each well, 15 μl (10% of the liquid volume in a well) of a color developing solution from CCK8 was added; and the plates were incubated at 37° C. for 45-70 minutes and each plate was read at 450 nm on a microplate reader. The data was edited using SoftMax Pro and a 4-P fitting curve was plotted.
# [3] = test system: NCI-H226 (human lung cancer cells); experiment: Tumor growth inhibition in subcutaneous xenograft model (CDX); format: in vivo, BALB/c-nude mice
# Description: (§3) Main CDX models: HPAF-II (human pancreatic cancer cells), NCI-H226 (human lung cancer cells) and SCLC-21H (small cell lung cancer cells)
# (§4) The cells or tumor tissue mass were prepared and subcutaneously inoculated into the anterior right flank of BALB/c-nude mice. When the tumor volume expanded to 80-160 mm^3, a randomized grouping was performed, and a model control group and administration groups were set. The mice were administrated from the first day of grouping, wherein the administration dose was adjusted according to the latest weight measurement. The mice were administrated via tail vein injection at an administration volume of 10 μl/g. After grouping and administration, the effects of tumor growth and treatment on normal behaviors of animals, specifically including the activity of experimental animals, food intake and drinking status, weight gain or loss status, and other abnormal conditions in eyes, hair, etc., were monitored. After grouping and administration, the weight of mice was measured twice a week to calculate the rate of weight change; at the same time, the long diameter and short diameter of the tumor were measured with a vernier caliper, and the tumor volume, relative tumor proliferation rate, tumor volume inhibition rate and other indicators were calculated. The formula of tumor volume is TV=0.5 a×b^2, wherein a is […] the long diameter of a tumor and b is the short diameter of a tumor.
# [4] = test system: SCLC-21H (small cell lung cancer cells); experiment: as above; format: in vivo, BALB/c-nude mice; conditions: SCLC-21H CDX
# Description: as §3, §4
# [5] = test system: CFPAC-1 (human pancreatic cancer cells); experiment: Inhibition of cell line proliferation, CCK8; format: cell-based; conditions: for IC50 (MMAE)/IC50 (conjugate): CFPAC-1; for IC50: CFPAC-1, 68-72 hours, CCK8
# [6] = test system: LNCaP (human prostate cancer cells); experiment: Inhibition of cell line proliferation, CCK8; format: cell-based; conditions: LNCaP; for IC50: 68-72 hours, CCK8
# Excerpt: Since different cells have different sensitivity to a cell proliferation inhibitory toxicity of the payload in a ligand conjugate, the quantitative analysis may be interfered occasionally. A series of cell lines with known expression levels of receptors of different ligands were selected and tested for the response to inhibitory effects of the cell proliferation of a ligand conjugate and a single payload. The IC50 ratio of a single payload to that of a ligand conjugate in same cell line were taken to remove such interference.
# Experimental operations: LNCaP and 22RV1 cells were prepared in advance, counted, and plated in 96-well cell culture plates at a cell density of 4×10^4 cells/ml and 2.0×10^4 cells/ml, respectively (100 μl/well); negative control and blank control wells were set on each plate. After adherent cell culture overnight, the diluted samples to be tested were added at 50 μl/well. The plates were placed in an incubator at 37° C., 5% CO2 and cultured for 68-72 hours. To each well, 15 μl (10% of the liquid volume in a well) of a color developing solution from CCK8 was added; and the plates were incubated at 37° C. for 45-70 minutes and each plate was read at 450 nm on a microplate reader. The data was edited using SoftMax Pro and a 4-P fitting curve was plotted. […]
# [7] = test system: NCI-H226 (human lung cancer cells); experiment: Inhibition of cell line proliferation, CCK8; format: cell-based
# Description: as §1
# Experimental operations: NCI-H226, CFPAC-1 and MDA-MB-468 cells were prepared in advance and counted; MDA-MB-468 and CFPAC-1 cells were plated at a density of 2×10^4 cells/ml (100 μl/well) and NCI-H226 cells were plated at a density of 1×10^4 cells/ml (100 μl/well) in 96-well plates; and negative control and blank control wells were set on each plate. After adherent cell culture overnight, the diluted samples to be tested were added at 50 μl/well. The plates were placed in an incubator at 37° C., 5% CO2 and cultured for 68-72 hours. To each well, 15 μl (10% of the liquid volume in a well) of a color developing solution from CCK8 was added; and the plates were incubated at 37° C. for 45-70 minutes and each plate was read at 450 nm on a microplate reader. The data was edited using SoftMax Pro and a 4-P fitting curve was plotted.
# [8] = test system: PANC-1 (human pancreatic cancer cells); experiment: Inhibition of cell line proliferation, CCK8; format: cell-based
# Description: Experimental operations: PANC-1 and CFPAC-1 cells were prepared in advance, counted, and plated in 96-well cell culture plates at a cell density of 4×10^4 cells/ml (100 μl/well); negative control and blank control wells were set on each plate. After adherent cell culture overnight, the diluted samples to be tested were added at 50 μl/well. The plates were placed in an incubator at 37° C., 5% CO2 and cultured for 68-72 hours. To each well, 15 μl (10% of the liquid volume in a well) of a color developing solution from CCK8 was added; and the plates were incubated at 37° C. for 45-70 minutes and each plate was read at 450 nm on a microplate reader. The data was edited using SoftMax Pro and a 4-P fitting curve was plotted.
# as §1
# as §2, with “Operations: LNCaP, MDA-MB-468, CFPAC-1 and PANC-1” for “Operations: LNCaP, SK-BR-3, MDA-MB-468 and CFPAC-1”, “CFPAC-1 and PANC-1 cells were” for “MDA-MB-468 and CFPAC-1 cells were”, “cells LNCaP, MDA-MB-468 and” for “cells LNCaP, SK-BR-3, MDA-MB-468 and”, “to 4×10^4 cells/ml, and PANC-1 was diluted to 3.0×10^4 cells/ml; the” for “to 4×10^4 cells/ml; the”, “at 100 μl/well; and negative” for “at 100 µl/well; and negative”
# [9] = test system: HPAF-II (human pancreatic cancer cells); experiment: Tumor growth inhibition in subcutaneous xenograft model (CDX); format: in vivo, BALB/c-nude mice
# Description: as §3, §4
Structure (SMILES),IC50 (MMAE)/IC50 (conjugate) ([1]; MDA-MB-468),"IC50 ([1]; MDA-MB-468, 68-72 hours, CCK8)",IC50 (MMAE)/IC50 (conjugate) [2],IC50 [2],anti-tumor growth effect (in words) [3],anti-tumor growth effect (in words) [4],IC50 (MMAE)/IC50 (conjugate) [5],IC50 [5],IC50 ratio (MMAE/conjugate) [6],IC50 [6],IC50 (MMAE)/IC50 (conjugate) ([7]; NCI-H226),"IC50 ([7]; NCI-H226, 68-72 hours, CCK8)",IC50 (MMAE)/IC50 (conjugate) ([8]; PANC-1),"IC50 ([8]; PANC-1, 68-72 hours, CCK8)",anti-tumor growth effect (in words) [9]
CC[C@H](C)[C@@H]([C@@H](CC(=O)N1CCC[C@H]1[C@H](OC)[C@@H](C)C(=O)N[C@H](C)[C@@H](O)c1ccccc1)OC)N(C)C(=O)[C@@H](NC(=O)[C@H](C(C)C)N(C)C(=O)OCc1ccc(NC(=O)C(CCCNC(N)=O)NC(=O)[C@@H](NC(=O)CCCCCN2C(=O)CC(SC[C@@H](NC(=O)CCCCCNC(=O)[C@H](CCCCN)NC(=O)[C@H](CC(=O)O)NC(=O)[C@H](CC(=O)O)NC(=O)Cc3ccc(CNC(=O)NCCCC[C@H](NC(=O)N[C@@H](CCC(=O)O)C(=O)O)C(=O)O)cc3)C(=O)NCCOCCOCCOCCOCCC(=O)NCCCCC(N[C@@H](Cc3ccc(O)cc3)C(=O)N[C@@H](CO)C(=O)N[C@@H](Cc3c[nH]c4ccccc34)C(=O)N[C@@H](Cc3cnc[nH]3)C(=O)[C@H]3CCC(=O)N3)C(=O)N[C@@H](CC(C)C)C(=O)N[C@@H](CCCNC(=N)N)C(=O)N3CCC[C@H]3C(=O)CN)C2=O)C(C)C)cc1)C(C)C (stereo partly drawn) [CB-1320],0.011,212 nM,0.016,93 nM,obvious anti-tumor growth effect,obvious anti-tumor growth effect,0.014,1090 nM,0.043,60 nM,,,,,
CC[C@H](C)[C@@H]([C@@H](CC(=O)N1CCC[C@H]1[C@H](OC)[C@@H](C)C(=O)N[C@H](C)[C@@H](O)c1ccccc1)OC)N(C)C(=O)[C@@H](NC(=O)[C@H](C(C)C)N(C)C(=O)OCc1ccc(NC(=O)C(CCCNC(N)=O)NC(=O)[C@@H](NC(=O)CCCCCN2C(=O)CC(SC[C@@H](NC(=O)CCCCCNC(=O)[C@H](CCCCN)NC(=O)[C@H](CC(=O)O)NC(=O)[C@H](CC(=O)O)NC(=O)Cc3ccc(CNC(=O)NCCCC[C@H](NC(=O)N[C@@H](CCC(=O)O)C(=O)O)C(=O)O)cc3)C(=O)NCCOCCOCCOCCOCCC(=O)N[C@@H](CCCCN)C(=O)N[C@@H](CCC(=O)O)C(=O)N[C@@H](Cc3ccccc3)C(=O)N[C@@H](CC(C)C)C(=O)N[C@@H](Cc3cnc[nH]3)C(=O)N3CCC[C@H]3C(=O)N[C@@H](CO)C(=O)N[C@@H](CCCCN)C(=O)NC(C(=O)N[C@@H](CC(=O)O)C(=O)N[C@@H](CC(C)C)C(=O)N3CCC[C@H]3C(=O)N[C@@H](CCCNC(=N)N)C(=O)O)C(C)C)C2=O)C(C)C)cc1)C(C)C (stereo partly drawn) [CB-1020] (I: {EuK-CO}-[X2]DDK[Ahx][dC][PEG4]KEFLHPSK[ξV]DLPR-OH / II: V[ξCit][PABC][NMeV]V[Dil][Dolaproine]-X1; linker I:6-II:N via Hexanoyl(6-succinimido-3yl)),,,0.0070,287 nM,,,0.005,3000 nM,0.0179,168 nM,0.00384,1570 nM,0.0044,458 nM,obvious anti-tumor growth effect
